This is an account of results in ChEMBL document CHEMBL1201862, “PubChem BioAssay data set” (2004).

Among the test systems are ACHN; BT-549; HCT-116; HCT-15; HOP-92; IGROV-1; K562; MDA-MB-231; NCI-H226; NCI/ADR-RES; RPMI-8226; RXF 393; SF-295; SN12C; SNB-75; SW-620; UACC-257; HCC 2998; CCRF-CEM.
Holding throughout (experiment): NCI anticancer screen, dose series, 48 h

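Following 48 hours of exposure in 96-well plates, responses at five concentrations were used to interpolate endpoints linearly. GI50 marks 50% less growth.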 The source made the active and inactive calls. Rule as the data show it: active = GI50 up to about 1.1 µM and inactive = higher. Some results are limits rather than exact numbers.

As for `NS(=O)(=O)c1nc(S(=O)(=O)O)c2[nH]cnc2n1`, the GI50 in the assay with ACHN is > 100 µM (inactive); in the assay on BT-549 it was > 100 µM (inactive); in the assay on HCT-116 it was > 100 µM (inactive); in the assay on HCT-15 it was more than 100 µM; in the assay on HOP-92, > 100 µM (inactive); in the assay on IGROV-1 it was > 100 µM (inactive). For the same compound, the GI50 in the assay on K562, with MDA-MB-231, in the assay on NCI-H226, in the assay with NCI/ADR-RES, in the assay on RPMI-8226 and in the assay with RXF 393 was > 100 µM (inactive) in each case. For the same compound, the GI50 with SF-295, with SN12C, in the assay on SNB-75, in the assay with SW-620 and in the assay on UACC-257 was > 100 µM (inactive) each time.
For the compound `COc1cc2c3cc1Oc1c(OC)c(OC)cc4c1C(Cc1ccc(O)c(c1)-c1cc(ccc1OC)CC3N(C)CC2)N(C)CC4` (stereo not given), the GI50 was 15.8 µM (inactive) in the assay on ACHN; 19.7 µM (inactive) with BT-549; 17.2 µM (inactive) with HCC 2998; 12.3 µM (inactive) in the assay on HCT-116; 6.07 µM in the assay on HCT-15; 20.2 µM (inactive) with HOP-92. The GI50 in the assay on IGROV-1 is 22.1 µM (inactive); with K562 it was 6 µM (inactive); in the assay with MDA-MB-231, 13.3 µM (inactive); in the assay with NCI-H226 it was 40.6 µM (inactive); in the assay on NCI/ADR-RES it was 25.9 µM (inactive); in the assay on RXF 393, 1.96 µM (inactive). In addition, the GI50 is 16.5 µM (inactive) with SF-295; 15.6 µM (inactive) in the assay on SN12C; 18.7 µM (inactive) with SNB-75; 22.3 µM (inactive) in the assay on SW-620; 21 µM (inactive) with UACC-257.
For `COc1cc2c(cc1OCCCOc1cc3c(cc1OC)C(=O)N1CCC[C@H]1CN3)N=C[C@@H]1CCCN1C2=O`, the GI50 in the assay with ACHN is 0.0986 µM (active); in the assay with BT-549, 0.0802 µM (active); with CCRF-CEM, < 0.01 µM (active); with HCT-116 it was 0.124 µM (active); in the assay with HCT-15 it was 1.86 µM; in the assay on HOP-92 it was 0.145 µM (active). Further, the GI50 in the assay with IGROV-1 is 0.201 µM (active); in the assay on K562, 0.0482 µM (active); in the assay on MDA-MB-231 it was 0.145 µM (active); in the assay with NCI-H226 it was 0.0782 µM (active); in the assay with NCI/ADR-RES, 3.11 µM (inactive); in the assay on RXF 393, 0.0497 µM (active). Besides, the GI50 in the assay on SF-295 was 0.123 µM (active); in the assay with SN12C, 0.189 µM (active); in the assay with SNB-75 it was 0.179 µM (active); in the assay on SW-620, 0.127 µM (active); in the assay on UACC-257, 0.206 µM (active).
As for `Cc1ccc(N2C(=O)C3c4[nH]c5ccccc5c4C4CCC(C(C)(C)C)CC4C3C2=O)cc1` (stereo not given), the GI50 was 6.64 µM (inactive) in the assay with ACHN; 19.2 µM (inactive) in the assay on BT-549; 5.36 µM (inactive) in the assay on CCRF-CEM; 14.8 µM (inactive) in the assay with HCC 2998; 11.1 µM (inactive) with HCT-116; 34.6 µM in the assay with HCT-15. The GI50 with HOP-92 is 15.1 µM (inactive); in the assay on IGROV-1, 11.4 µM (inactive); in the assay with K562, 5.51 µM (inactive); in the assay on MDA-MB-231, 3.78 µM (inactive); in the assay with NCI-H226 it was 17.4 µM (inactive); in the assay on NCI/ADR-RES it was 12.8 µM (inactive). Besides, the GI50 with RPMI-8226 is 8.85 µM (inactive); in the assay on RXF 393, 10.4 µM (inactive); with SF-295, 8.15 µM (inactive); with SN12C, 10.3 µM (inactive); with SW-620, > 26.1 µM (inactive); in the assay with UACC-257 it was 13.3 µM (inactive).
`CCn1c(=O)c2c3cc(O)ccc3oc2c2ccc(O)cc21`: the GI50 is 21.3 µM (inactive) with ACHN; 17.4 µM (inactive) in the assay on BT-549; 21.1 µM (inactive) with CCRF-CEM; 19.3 µM (inactive) with HCC 2998; 31 µM in the assay on HCT-15; 26.2 µM (inactive) with HOP-92. Moreover, the GI50 with IGROV-1 was 42.6 µM (inactive); in the assay with K562, 25.9 µM (inactive); in the assay with MDA-MB-231 it was 25.2 µM (inactive); in the assay on NCI-H226, 37.1 µM (inactive); in the assay with NCI/ADR-RES, 37.8 µM (inactive); with RXF 393 it was 30.1 µM (inactive). Besides, the GI50 in the assay with SF-295 was 25 µM (inactive); with SN12C, 29.2 µM (inactive); in the assay on SNB-75, 22.9 µM (inactive); in the assay on SW-620 it was 31.3 µM (inactive); with UACC-257 it was 76.6 µM (inactive).
Regarding `Cc1nnc2sc(-c3ccc(-c4ccccc4Cl)o3)nn12`, the GI50 is 48.4 µM (inactive) in the assay with ACHN; 24 µM (inactive) with BT-549; 43.6 µM (inactive) in the assay on CCRF-CEM; 21.8 µM (inactive) in the assay with HCC 2998; 19.8 µM (inactive) in the assay on HCT-116; 24.9 µM in the assay on HCT-15. The GI50 in the assay with HOP-92 was 40.2 µM (inactive); with IGROV-1, 40.6 µM (inactive); with K562, 21.2 µM (inactive); with MDA-MB-231 it was 53.2 µM (inactive); in the assay with NCI-H226, 20.8 µM (inactive); in the assay on NCI/ADR-RES, 21.9 µM (inactive). Further, the GI50 in the assay on RPMI-8226 is 20.4 µM (inactive); in the assay with RXF 393, 33.8 µM (inactive); with SF-295 it was 32.1 µM (inactive); in the assay on SN12C, 35.4 µM (inactive); in the assay on SW-620, 20.9 µM (inactive); in the assay on UACC-257, 44.5 µM (inactive).
With `Cc1cc2c(O)nc(N)nc2nc1C`, the GI50 in the assay on ACHN is > 100 µM (inactive); with BT-549, > 100 µM (inactive); with CCRF-CEM, > 100 µM (inactive); in the assay on HCT-116 it was > 100 µM (inactive); with HCT-15, more than 100 µM; in the assay with HOP-92, > 100 µM (inactive). Also, the GI50 with IGROV-1, in the assay on K562, in the assay with MDA-MB-231, with NCI-H226, with NCI/ADR-RES and in the assay on RPMI-8226 was > 100 µM (inactive) throughout. For the same compound, the GI50 with RXF 393, in the assay with SF-295, in the assay on SN12C, with SNB-75, in the assay with SW-620 and in the assay with UACC-257 was > 100 µM (inactive) in each case.
As for `CC1=C(C(=O)NNC(=O)Cc2ccccc2)CC(C(=O)NNC(=O)Cc2ccccc2)=C(C)N1`, the GI50 is > 100 µM (inactive) in the assay on ACHN; > 100 µM (inactive) in the assay with BT-549; > 100 µM (inactive) in the assay on HCC 2998; > 100 µM (inactive) with HCT-116; more than 100 µM in the assay with HCT-15; > 100 µM (inactive) in the assay on HOP-92. Also, the GI50 in the assay on IGROV-1 is > 100 µM (inactive); in the assay on MDA-MB-231, > 100 µM (inactive); in the assay with NCI-H226, > 100 µM (inactive); in the assay on NCI/ADR-RES, > 100 µM (inactive); with RXF 393, 47.8 µM (inactive); with SF-295 it was > 100 µM (inactive). Besides, the GI50 in the assay with SN12C, with SNB-75, with SW-620 and with UACC-257 was > 100 µM (inactive) each time.
Consider `NCC(=O)Nc1ccccc1`, for which the GI50 with ACHN is > 100 µM (inactive); with BT-549 it was > 100 µM (inactive); in the assay with HCC 2998, > 100 µM (inactive); with HCT-116, > 100 µM (inactive); in the assay with HCT-15 it was more than 100 µM; in the assay on HOP-92, > 100 µM (inactive). Further, the GI50 in the assay with IGROV-1 was > 100 µM (inactive); in the assay on K562, 60.5 µM (inactive); in the assay with MDA-MB-231, 15.5 µM (inactive); in the assay with NCI-H226, > 100 µM (inactive); with NCI/ADR-RES, > 100 µM (inactive); with RXF 393, > 100 µM (inactive). The GI50 in the assay with SF-295, in the assay on SN12C, with SNB-75, in the assay on SW-620 and in the assay on UACC-257 was > 100 µM (inactive) throughout.
